The source of these data is PubChem BioAssay (NCI).

Common to all, as to experiment: NCI tumour cell line growth inhibition, 48 h
For assay [1], the system named is SK-MEL-2 melanoma.
Assay [2] concerns HOP-62 NSCLC.
Assay [3] deals with MDA-MB-435.
In assay [4] the test system is NCI/ADR-RES ovarian.
Assay [5] has as its system DU-145 prostate.
In assay [6] the test system is K-562 leukemia.
For assay [7], the system named is RXF 393 renal.
Assay [8] concerns OVCAR-3 ovarian.
In assay [9] the test system is T-47D breast.
Assay [10] has as its system 786-0 renal.

Structures are written as SMILES. “And” between values parts separate entries of the source, which are not always exact repeats. Identical values can stand only once.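 These data come from cells grown in 96-well plates and exposed to compound for 48 hours at five concentrations. GI50 is the concentration that inhibits growth by half. Definition used: TGI = concentration required for complete inhibition of growth.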

`CC1OC(O[C@H]2/C=C/C=C/C=C/C=C/C=C/C=C/C=C/[C@H](C)[C@@H](O)[C@@H](C)[C@H](C)OC(=O)CC(O)CC(O)CCC(O)C(O)CC(O)C[C@]3(O)C[C@H](O)C(C(=O)O)C(C2)O3)C(O)[C@H](N)C1O` (stereo partly drawn): the GI50 in [1] is 3.9 µM; in assay [2] it was 1.57 µM; in [3], 2.01 µM; in assay [4], 2.1 µM; in assay [5], 2.8 µM; in assay [6] it was 30.1 µM. The GI50 in [7] was 1.84 µM; in [8], 2.39 µM; in assay [9], 16.4 µM. The TGI in assay [1] was 12 µM; in [2] it was 3.11 µM; in [3], 3.69 µM; in [4], 5.16 µM; in assay [5], 7.22 µM; in [6], above 100 µM. Besides, the TGI is 3.95 µM in [7], 5.35 µM in [8] and 90.3 µM in assay [9].

`O[C@H]1[C@H](O)[C@@H](O)[C@@]2(O)C[C@@H](O)[C@@H]1N2`: the TGI in [2], in [3], in [4], in assay [10], in assay [5] and in assay [6] was above 100 µM throughout. Further, the TGI in assay [7], in assay [8] and in assay [9] was above 100 µM in each case.

Consider `COc1cc([C@@H]2c3cc(O)c(OC)cc3C=C(C(N)=O)[C@H]2C(N)=O)ccc1O`, for which the TGI in assay [2], in assay [3], in assay [4], in assay [10], in [5] and in [6] was above 100 µM each time. For the same molecule, the TGI in assay [7], in [8] and in [9] was above 100 µM in each case.

As to `CCC[C@H](C)C[C@H](C)C[C@H](C)/C=C(\C)[C@@H](O)[C@@H](C)C(=O)CC`, the TGI in [1] was determined as 44.7 µM; in assay [2], 35.2 µM; in assay [3], 35.7 µM; in assay [4], 30.9 µM; in assay [10], 35.7 µM; in [5], 43.4 µM. In addition, the TGI in [6] worked out at 38 µM; in [7] it was 40 µM; in assay [8], 34.4 µM; in assay [9] it was 50.8 µM.

With `Cc1ccc(/C(O)=C/C(=O)C(=O)NN=C(c2ccccc2)c2ccccc2)cc1`, the TGI in [1], in assay [3], in assay [4], in assay [10], in assay [5] and in [6] was above 100 µM throughout. The TGI in assay [7], in [8] and in assay [9] was above 100 µM throughout.

As for `CN(C)CCCN1c2ccccc2CCc2ccc([N+](=O)[O-])cc21`, the TGI in [1] was 43.9 µM; in [2], 62.9 µM; in assay [3], 36 µM; in [4], 42.1 µM; in assay [10], above 100 µM; in assay [5], 38.6 µM. For the same molecule, the TGI in assay [6] was above 100 µM; in [8] it was above 100 µM; in assay [9], 34.1 µM.

Consider `COc1cccc(N2C(=O)C3c4[nH]c5ccc(C)cc5c4C4CCC(C(C)(C)C)CC4C3C2=O)c1` (stereo not drawn), for which the TGI was above 10 µM in assay [1]; above 10 µM in [2]; above 10 µM in assay [3]; 9.27 µM in [4]; above 10 µM in assay [5]; 7.67 µM in [6]. Further, the TGI was 9.94 µM in [7], above 10 µM in assay [8] and above 10 µM in assay [9].

For `CCN(CC)CCNCc1cc(Cl)cc2c1OCOC2`, the TGI in [1], in [2], in assay [3], in [4], in [5] and in assay [6] was above 10 µM in each case. For the same molecule, the TGI in [7], in assay [8] and in [9] was above 10 µM throughout.

`CC(C)[C@@H]1ON1C(C)c1ccccc1` (stereo partly drawn): the TGI in [2], in assay [3], in assay [4], in [10], in assay [5] and in assay [6] was above 100 µM each time. For the same molecule, the TGI in [7], in [8] and in assay [9] was above 100 µM in each case.

`FC(F)(F)c1ccc2nc(Sc3ccccn3)cnc2c1`: the TGI in assay [1] was 31.1 µM; in assay [2] it was above 100 µM; in [3], above 100 µM; in assay [4], above 100 µM; in [10] it was 62.1 µM; in [5], above 100 µM. Moreover, the TGI in [6] is above 100 µM; in assay [7], 55.5 µM; in assay [9] it was above 100 µM.

On to `Cc1ccc2nc(NC(=O)/C(Cc3nc4ccc(Cl)cc4[nH]c3=O)=N\NC(C)(C)C)sc2c1`, for which the TGI in assay [1], in [3], in assay [4], in assay [10], in assay [5] and in [6] was above 100 µM in each case. Besides, the TGI in assay [7], in assay [8] and in [9] was above 100 µM in each case.

Regarding `C/C1=C\[C@@H](O)C(=O)/C=C/C=C\c2csc(n2)[C@@H](C)NC(=O)C[C@@]2(CC1)S(=O)SC(=O)[C@]2(C)O` (stereo partly drawn), the TGI in [1] is 0.0148 µM; in assay [2], 0.374 µM and 1.83 µM; in assay [3], 0.0562 µM; in assay [4] it was 0.11 µM; in assay [10], 0.0354 µM and 0.0108 µM; in assay [5], 0.114 µM. Also, the TGI in assay [6] was above 100 µM; in assay [7] it was 0.0331 µM; in assay [9], 0.0217 µM. The GI50 in assay [2] is 0.28 µM.

Regarding `CCOc1ccc(-n2nnc3c(N)nc(N)nc32)cc1`, the TGI in assay [1], in assay [2], in assay [3], in assay [4], in assay [10] and in assay [5] was above 100 µM in each case. Moreover, the TGI in assay [6], in assay [8] and in [9] was above 100 µM each time.
